Data reported in patent US20240391882A1 (Mirati Therapeutics, Inc., priority 2023, published 2024).
pIC50: −log10 of the molar value. Where two headings read alike, the source gives them in different places.

Tests used:
Format in all cases: cell-based
[1] = system: pAKT in T47D (PI3Kα H1047R mutant) cells; assay: Inhibition of pAKT (alphaLISA Surefire Ultra AKT 1/2/3 pS473) in T47D cells; details: Homo sapiens, read-out: T47D (H1047R) pAKT 24 hr (IC50)
Summary of the method: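 AlphaLISA read-out of AKT pS473 in lysates after roughly 24 h compound exposure at 37° C in HBSS. Ten concentrations, 1:4 dilutions from a 10.4 μm top dose. Percent of control uses alpelisib at 3.125 μm as background and DMSO as vehicle; four-parameter curve gives IC50.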

[2] = system: T47D (PI3Kα H1047R mutant) cells; assay: Cell viability (CellTiter-Glo 2.0) in T47D cells; details: Homo sapiens, approximately 72 hours
Summary of the method: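 IC50 values derive from four-parameter fits of CellTiter-Glo luminescence expressed as percent of vehicle control. Cells (T47D or SKBR3) were plated at 1000/well the day before dosing and incubated about 72 h at 37° C with a 10-point, 1:4 series starting at 10 μm.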

[3] = system: SKBR3 (PI3Kα wild type) cells; assay: Cell viability (CellTiter-Glo 2.0) in SKBR3 cells; details: Homo sapiens; for pIC50: SK-BR-3, SKBR3 (PI3Kα wild type) cells, approximately 72 hours, CellTiter-Glo 2.0, read-out: SKBR3 (WT) Viability IC50; for IC50: SK-BR-3, 72 h, read-out: SKBR3 (WT) Viability IC50 (nM)
Protocol: This Example illustrates that representative compounds of the invention decrease the viability of cells.
The ability of a compound of Formula (I) to decrease the viability of cells was measured using CellTiter-Glo 2.0 (CTG) Luminescent Cell Viability Assay (#G9241) obtained from Promega (Madison, WI).
To prepare assay plates for viability assays, cells were trypsinized, resuspended in fresh media, and viable cells were counted utilizing trypan blue exclusion. T47D, SKBR3, or MKN1 cells were seeded at 1000 cells in 30 μl per well in a solid white flat bottom 384 cell culture plate (Perkin Elmer #6007680) and incubated at 37° C. overnight.
Assay day 1, cells were dosed using an Echo Liquid Handler (Beckman Coulter) with compounds at a 10 μm starting concentration and serially diluted (1:4) for a total of 10 concentrations. Cells were incubated for approximately 72 hours with the compounds (solubilized in DMSO) at 37° C. After 72 hours of treatment, cell plates were equilibrated to room temperature before adding 15 μl of CTG to each well, plates were then covered in aluminum foil to protect from light, incubated at room temperature for 30 minutes on a microtiter plate shaker, and luminescence readings were collected using a CLARIOstar microplate reader (BMG Labtech, Germany). Percent of vehicle control values were plotted as log(inhibitor) vs. response—Variable slope (four parameters) for curve fitting and IC50 values were determined using XLfit.

[4] = T47D (PI3Kα H1047R mutant) cells, 24 hr compound incubation, alphaLISA pS473

## CO[C@@H](C)C1CCN(c2nc3c([C@@H](C)Nc4ccc(Cl)nc4C(=O)O)cc(C)cc3nc2C#N)CC1 (single isomer, unassigned) [Example 195B]
[1]; [4]
  pIC50: 9.43
[2]; T47D, 72 h
  pIC50: 7.00
[3]
  pIC50: < 5.00

## Cc1cc([C@@H](C)Nc2ccccc2C(=O)O)c2nc(N3CCN(C(=O)C[C@@H]4CC4(F)F)CC3)c(C#N)nc2c1 (single isomer, unassigned) [Example 197]
[1]; [4]
  pIC50: 8.74
[2]; T47D, 72 h
  pIC50: 6.98
[3]
  pIC50: < 5.00

## Cc1cc([C@@H](C)Nc2ccc(Cl)nc2C(=O)O)c2nc(N3C[C@H](CO)C(F)(F)C3)c(C#N)nc2c1 (single isomer, unassigned) [Example 210A]
[1]; [4]
  pIC50: 9.16
[2]; T47D, 72 h
  pIC50: 6.87
[3]
  pIC50: < 5.00

## Cc1cc([C@@H](C)Nc2ccc(Cl)nc2C(=O)O)c2nc(N3C[C@@H](CO)C(F)(F)C3)c(C#N)nc2c1 (single isomer, unassigned) [Example 210B]
[1]; [4]
  pIC50: 9.10
[2]; T47D, 72 h
  pIC50: 6.92
[3]
  pIC50: < 5.00

## COC[C@@H]1CN(c2nc3c([C@@H](C)Nc4ccc(Cl)nc4C(=O)O)cc(C)cc3nc2C#N)CC1(F)F (single isomer, unassigned) [Example 211A]
[1]; [4]
  pIC50: 8.24
[2]; T47D, 72 h
  pIC50: 7.11
[3]
  pIC50: 5.16

## COC[C@H]1CN(c2nc3c([C@@H](C)Nc4ccc(Cl)nc4C(=O)O)cc(C)cc3nc2C#N)CC1(F)F (single isomer, unassigned) [Example 211B]
[1]; [4]
  pIC50: 8.59
[2]; T47D, 72 h
  pIC50: 8.57
[3]
  pIC50: 5.17

## Cc1cc([C@@H](C)Nc2ccc(Cl)nc2C(=O)O)c2nc(N3C[C@H]4COC[C@@H]4C3)c(C#N)nc2c1 (single isomer, unassigned) [Example 229A]
[1]; [4]
  pIC50: 9.26
[2]; T47D, 72 h
  pIC50: 7.78
[3]
  pIC50: 5.51

## Cc1cc([C@@H](C)Nc2ccc(Cl)nc2C(=O)O)c2nc(N3C[C@@H]4COC[C@H]4C3)c(C#N)nc2c1 (single isomer, unassigned) [Example 229B]
[1]; [4]
  pIC50: 8.92
[2]; T47D, 72 h
  pIC50: 7.73
[3]
  pIC50: 5.31

## Cc1cc([C@@H](C)Nc2ccc(Cl)nc2C(=O)O)c2nc(N3CCC(F)(F)[C@@H](CO)C3)c(C#N)nc2c1 (single isomer, unassigned) [Example 234A]
[1]; [4]
  pIC50: 8.55
[2]; T47D, 72 h
  pIC50: 7.14
[3]
  pIC50: < 5.00

## Cc1cc([C@@H](C)Nc2ccc(Cl)nc2C(=O)O)c2nc(N3CCC(F)(F)[C@H](CO)C3)c(C#N)nc2c1 (single isomer, unassigned) [Example 234B]
[1]; [4]
  pIC50: 8.44
[2]; T47D, 72 h
  pIC50: 7.07
[3]
  pIC50: < 5.00

## Cc1cc([C@@H](C)Nc2ccc(Cl)nc2C(=O)O)c2nc(N3CCO[C@@H]4C[C@@H]43)c(C#N)nc2c1 (single isomer, unassigned) [Example 239A]
[1]; [4]
  pIC50: 9.00
[2]; T47D, 72 h
  pIC50: 7.41
[3]
  pIC50: < 5.00

## Cc1cc([C@@H](C)Nc2ccc(Cl)nc2C(=O)O)c2nc(N3CCO[C@H]4C[C@H]43)c(C#N)nc2c1 (single isomer, unassigned) [Example 239B]
[1]; [4]
  pIC50: 9.40
[2]; T47D, 72 h
  pIC50: 7.66
[3]
  pIC50: 5.14

## Cc1cc([C@@H](C)Nc2ccc(Cl)nc2C(=O)O)c2nc(N3C[C@@H]4CO[C@@H](C4)C3)c(C#N)nc2c1 (single isomer, unassigned) [Example 243A]
[1]; [4]
  pIC50: 9.47
[2]; T47D, 72 h
  pIC50: 7.21
[3]
  pIC50: 5.54

## Cc1cc([C@@H](C)Nc2ccc(Cl)nc2C(=O)O)c2nc(N3C[C@H]4CO[C@H](C4)C3)c(C#N)nc2c1 (single isomer, unassigned) [Example 243B]
[1]; [4]
  pIC50: 9.28
[2]; T47D, 72 h
  pIC50: 7.30
[3]
  pIC50: < 5.00

## Cc1cc([C@@H](C)Nc2ccc(Cl)nc2C(=O)O)c2nc(N3CC4CC[C@@]4(F)C3)c(C#N)nc2c1 (single isomer, unassigned) [Example 244A]
[1]; [4]
  pIC50: 8.92
[2]; T47D, 72 h
  pIC50: 7.24
[3]
  pIC50: < 5.00

## Cc1cc([C@@H](C)Nc2ccc(Cl)nc2C(=O)O)c2nc(N3CC4CCC4(F)C3)c(C#N)nc2c1 (single isomer, unassigned) [Example 244B]
[1]; [4]
  pIC50: 8.89
[2]; T47D, 72 h
  pIC50: 7.05
[3]
  pIC50: < 5.00

## Cc1cc([C@@H](C)Nc2ccc(Cl)nc2C(=O)O)c2nc(N3CC[C@@]4(CCCO4)C3)c(C#N)nc2c1 (single isomer, unassigned) [Example 253A]
[1]; [4]
  pIC50: 8.25
[2]; T47D, 72 h
  pIC50: 6.71
[3]
  pIC50: 5.16

## Cc1cc([C@@H](C)Nc2ccc(Cl)nc2C(=O)O)c2nc(N3CC[C@]4(CCCO4)C3)c(C#N)nc2c1 (single isomer, unassigned) [Example 253B]
[1]; [4]
  pIC50: 8.24
[2]; T47D, 72 h
  pIC50: 6.95
[3]
  pIC50: 5.29

## Cc1cc([C@@H](C)Nc2ccc(Cl)nc2C(=O)O)c2nc(N3CC4(CC[C@@H]4F)C3)c(C#N)nc2c1 (single isomer, unassigned) [Example 257A]
[1]; [4]
  pIC50: 8.32
[2]; T47D, 72 h
  pIC50: 6.86
[3]
  pIC50: 5.43

## Cc1cc(C(C)Nc2ccccc2C(=O)O)c2nc(N3Cc4ccccc4C3)c(C#N)nc2c1 (stereo not drawn) [Example 2, 2-((1-(2-cyano-3-(isoindolin-2-yl)-7-methylquinoxalin-5-yl)ethyl)amino)benzoic acid]
[1]; [4]
  pIC50: 7.74
[2]; T47D, 72 h
  pIC50: 6.20
[3]
  pIC50: < 5.00

## Cc1cc([C@@H](C)Nc2ccccc2C(=O)O)c2nc(N3CCC(F)(F)CC3)c(C#N)nc2c1 [Example 3, (R)-2-((1-(2-cyano-3-(4,4-difluoropiperidin-1-yl)-7-methylquinoxalin-5-yl)ethyl)amino)benzoate]
[1]; [4]
  pIC50: 8.02
[2]; T47D, 72 h
  pIC50: 6.77
[3]
  pIC50: < 5.00

## Cc1cc([C@H](C)Nc2ccccc2C(=O)O)c2nc(N3CCC(F)(F)CC3)c(C#N)nc2c1 [Example 4, (S)-2-((1-(2-cyano-3-(4,4-difluoropiperidin-1-yl)-7-methylquinoxalin-5-yl)ethyl)amino)benzoate]
[1]; [4]
  pIC50: 6.07
[2]; T47D, 72 h
  pIC50: 5.03
[3]
  pIC50: < 5.00

## Cc1cc([C@@H](C)Nc2ccc(Cl)nc2C(=O)O)c2nc(N3CCC(F)(F)CC3)c(C#N)nc2c1 [Example 5, (R)-6-chloro-3-((1-(2-cyano-3-(4,4-difluoropiperidin-1-yl)-7-methylquinoxalin-5-yl)ethyl)amino)picolinic acid]
[1]; T47D, 24 h
  pIC50: 9.10
[2]
  pIC50: 7.43
[3]
  IC50: 3970 nM

## Cc1cc([C@@H](C)Nc2ccccc2C(=O)O)c2nc(N3Cc4ccccc4C3)c(C#N)nc2c1 [Example 6, (R)-2-((1-(2-cyano-3-(isoindolin-2-yl)-7-methylquinoxalin-5-yl)ethyl)amino)benzoic acid]
[1]; T47D, 24 h
  pIC50: 8.30
[2]
  pIC50: 6.53
[3]
  IC50: > 10000 nM

## Cc1cc([C@@H](C)Nc2ccc(Cl)nc2C(=O)O)c2nc(N3CC4CC(C3)C4(F)F)c(C#N)nc2c1 [Example 7, 6-chloro-3-(((1R)-1-(2-cyano-3-(6,6-difluoro-3-azabicyclo[3.1.1]heptan-3-yl)-7-methylquinoxalin-5-yl)ethyl)amino)picolinic acid]
[1]; [4]
  pIC50: 9.10
[2]; T47D, 72 h
  pIC50: 7.22
[3]
  pIC50: < 5.00

## Cc1cc([C@@H](C)Nc2ccc(Cl)nc2C(=O)O)c2nc(N3CC4C(C3)C4(F)F)c(C#N)nc2c1 (stereo partly drawn) [Example 21, 6-chloro-3-(((1R)-1-(2-cyano-3-(6,6-difluoro-3-azabicyclo[3.1.0]hexan-3-yl)-7-methylquinoxalin-5-yl)ethyl)amino)picolinic acid]
[1]; [4]
  pIC50: 9.30
[2]; T47D, 72 h
  pIC50: 7.49
[3]
  pIC50: < 5.00

## Cc1cc([C@@H](C)Nc2ccc(Cl)nc2C(=O)O)c2nc(N3CCC4(CC4)C(F)(F)C3)c(C#N)nc2c1 [Example 22, (R)-6-chloro-3-((1-(2-cyano-3-(4,4-difluoro-6-azaspiro[2.5]octan-6-yl)-7-methylquinoxalin-5-yl)ethyl)amino)picolinic acid]
[1]; [4]
  pIC50: 8.72
[2]; T47D, 72 h
  pIC50: 7.10
[3]
  pIC50: 5.27

## Cc1cc([C@@H](C)Nc2ccc(Cl)nc2C(=O)O)c2nc(NCC3(F)CC3)c(C#N)nc2c1 [Example 23, (R)-6-chloro-3-((1-(2-cyano-3-(((1-fluorocyclopropyl)methyl)amino)-7-methylquinoxalin-5-yl)ethyl)amino)picolinic acid]
[1]; [4]
  pIC50: 9.15
[2]; T47D, 72 h
  pIC50: 7.21
[3]
  pIC50: < 5.00

## Cc1cc([C@@H](C)Nc2ccc(Cl)nc2C(=O)O)c2nc(N3Cc4ccc(F)cc4C3)c(C#N)nc2c1 [Example 24, (R)-6-chloro-3-((1-(2-cyano-3-(5-fluoroisoindolin-2-yl)-7-methylquinoxalin-5-yl)ethyl)amino)picolinic acid]
[1]; [4]
  pIC50: 8.89
[2]; T47D, 72 h
  pIC50: 7.35
[3]
  pIC50: < 5.00
